What is called Kd is a measure of binding affinity in units of concentration. A high value points to weaker binding.

For assay [1], the target named is T1, α/β-tubulin (Sus scrofa, UniProt P02550+P02554).
T1 construct: α/β-Tubulin was purified from porcine brain; from tissue; host or cells: porcine brain
Description: Tryptophan-based drug-binding assay, α/β-tubulin. Particulars: tryptophan fluorescence decrease; 1 μM protein; mean±s.d., three independent experiments. More on the design: species or system porcine. As for the experimental part: γ-TuSC was purified as described. Briefly, γ-TuSC was expressed in HighFive cells and purified by sequential steps of Ni-NTA (Macherei-Nagel) purification, MonoQ column purification (GE Healthcare) and size exclusion (Superdex 200 column, GE Healthcare)[14]. α/β-Tubulin was purified from porcine brain through four cycles of polymerization and depolymerization using 1 M PIPES buffer (1 M PIPES-KOH, 1 mM EGTA, 1 mM MgCl2, pH 6.8) for effective removal of MT-associated proteins.
Gel filtration buffer for γ-tubulin purification (50 mM MES pH 6.6, 500 mM KCl, 5 mM MgCl2, 1 mM EGTA and 1 mM DTT) supplemented with 10% of glycerol was used as an assay buffer. γ-tubulin and α/β-tubulin were diluted in this assay buffer to reach a final protein concentration of 1 μM. A final concentration of 10 μM or 1 mM GTP was added to the samples. Proteins were incubated for 30 min with compounds (final DMSO concentration was 1%; 2% for AG1 and gatastatin). […] Dissociation constants were calculated from fitting curves of decreasing fluorescence (ΔFL) using the GraphPad Prizm software.
Target sequence in this assay (P02554 whole entry): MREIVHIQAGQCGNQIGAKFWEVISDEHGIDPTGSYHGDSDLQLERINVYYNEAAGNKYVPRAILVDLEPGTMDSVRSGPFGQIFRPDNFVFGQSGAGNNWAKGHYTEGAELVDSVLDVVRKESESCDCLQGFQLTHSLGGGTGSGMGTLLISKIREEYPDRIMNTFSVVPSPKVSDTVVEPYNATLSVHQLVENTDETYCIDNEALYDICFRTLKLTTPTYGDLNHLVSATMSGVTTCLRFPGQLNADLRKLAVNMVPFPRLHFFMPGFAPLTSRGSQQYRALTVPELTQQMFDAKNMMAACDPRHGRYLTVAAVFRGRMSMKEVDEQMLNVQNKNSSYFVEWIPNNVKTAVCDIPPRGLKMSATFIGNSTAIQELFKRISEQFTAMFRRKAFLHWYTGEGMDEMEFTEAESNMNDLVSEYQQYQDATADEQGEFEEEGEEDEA
Target sequence in this assay (P02550 whole entry): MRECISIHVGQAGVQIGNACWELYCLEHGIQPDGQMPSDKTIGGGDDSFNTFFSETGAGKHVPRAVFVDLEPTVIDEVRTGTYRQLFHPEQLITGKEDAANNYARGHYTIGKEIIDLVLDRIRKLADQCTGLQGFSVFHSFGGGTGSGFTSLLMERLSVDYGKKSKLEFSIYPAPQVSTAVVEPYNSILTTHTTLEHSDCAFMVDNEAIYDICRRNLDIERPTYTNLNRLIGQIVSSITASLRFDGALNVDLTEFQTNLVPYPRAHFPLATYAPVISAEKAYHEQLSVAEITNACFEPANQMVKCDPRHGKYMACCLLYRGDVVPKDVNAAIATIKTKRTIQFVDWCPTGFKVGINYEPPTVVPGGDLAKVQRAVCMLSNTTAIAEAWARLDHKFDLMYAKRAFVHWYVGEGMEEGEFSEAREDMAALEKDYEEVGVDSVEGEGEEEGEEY

The target of assay [2] is T2, porcine brain α/β-tubulin (Sus scrofa, UniProt P02550+P02554).
T2 construct: α/β-Tubulin was purified from porcine brain; from tissue; host or cells: porcine brain
Put plainly: In vitro MT polymerization assay (glutamate, paclitaxel or Tau stimulated). The format is biochemical. Particulars: absence of γ-tubulin; absorbance at 350 nm, 37 °C. As for the experimental part: For glutamate-stimulated MT polymerization, 1 mg ml^−1 porcine brain α/β-tubulin was mixed with glutamate (final concentration 1 M) and GTP (final concentration 1 mM) in RB buffer on ice. For paclitaxel-stimulated MT polymerization, 1 mg ml^−1 porcine brain α/β-tubulin was mixed with paclitaxel (final concentration 10 μM) and GTP (final concentration 1 mM) in RB buffer on ice. For recombinant Tau protein-stimulated MT polymerization, 1 mg ml^−1 α/β-tubulin purified from porcine brain and Tau protein were mixed with GTP (final concentration 1 mM) in RB buffer on ice. For γ-TuSC-stimulated MT polymerization, γ-TuSC was mixed with GTP (final concentration 1 mM). One of the compounds and α/β-tubulin were then added. Samples were transferred into cuvettes. Tubulin polymerization was monitored using the absorbance at 350 nm at 37 °C using a thermostatic spectrophotometer (Beckman Coulter).

In assay [3] the target is T1, α/β-tubulin. Put plainly: MT dynamics in vitro by TIRF microscopy of single MTs. The format is biochemical, porcine. Particulars: 30 μM, 5 μM tubulin, GMPCPP seeds. The procedure: Purified α/β-tubulin was labelled with tetramethylrhodamine Succinimidyl Ester (C-1171, Life Technologies), Alexa Fluor 647 NHS Ester (A-20106, Life Technologies) or NHS-LC-biotin (21336, Life Technologies) as described. Briefly, α/β-tubulin was polymerized to form MTs. Then, the MTs were centrifuged, resuspended in labelling buffer containing NHS-conjugated dye or biotin. After the labelling reaction, two cycles of polymerization and depolymerization were performed to obtain active α/β-tubulin.
GMPCPP MT seeds were prepared by copolymerization of non-labelled tubulin, tetramethylrhodamine-labelled tubulin and biotin-labelled tubulin with 0.2 mM GMPCPP to yield the rhodamine and biotin labelling ratio 2% and 3%, respectively. GMPCPP was prepared enzymatically from GMPCP (M3170, Sigma-Aldrich) and nucleotide diphosphate kinase (N0379, Sigma-Aldrich)[35]. The glass chambers for observation were prepared as follows. […] The images of MTs were observed under total internal reflection fluorescence microscopy (IX81, Olympus) with a × 100 objective lens (UPlanSApo, numerical aperture (NA) 1.40, Olympus) and recorded at the frame rate of two frames per second using iXon3 EM CCD camera (Andor). […]
Target sequence in this assay (P02550 whole entry): as above
Target sequence in this assay (P02554 whole entry): as the sequence (P02554 whole entry) above

The next assay relates to HeLa cells. Put plainly: Anaphase spindle elongation, time-lapse anaphase duration. The class given is cell-based, human. The settings on record: 30 μM, after MG132 washout, 1 μM reversine, control 18.6 min. The procedure: HeLa cells expressing mCherry-H2B and EGFP-α-tubulin, HeLa ‘Kyoto' cell line stably expressing CEP55-LAPtag (a kind gift from Dr A.A. Hyman) and HeLa cells expressing RFP-H2B and GFP-LifeAct (a kind gift from Dr J. Ellenberg) were cultured in DMEM+GlutaMAX (Gibco) supplemented with 10% FBS, 100 U ml^−1 penicillin, 100 μg ml^−1 streptomycin and 1 mM sodium pyruvate in a humidified atmosphere containing 5% CO2. To observe the transition from metaphase to anaphase, telophase and cytokinesis, cells were arrested at metaphase by sequential treatment of STLC and MG132. After MG132 removal by washing of cells with medium three times, the medium was changed to Live Cell Imaging Solution (Molecular Probes Life Technologies) supplemented as described above containing 1 μM of MPS1 inhibitor reversine and either DMSO or 30 μM of gatastatin. Time-lapse observation was performed at 37 °C using the DeltaVision Olympus IX71 microscope (Applied Precision) equipped with CoolSNAP HQ camera (Photometrics). Images were taken every 3 min with 12 z-stacks (1 μm per stack) for 3 h. The anaphase duration (between chromosome separation and start of midbody formation) was calculated.

T2 sequence (P02550 whole entry): as the sequence (P02550 whole entry) above
T2 sequence (P02554 whole entry): as the sequence (P02554 whole entry) above

In turn, `COc1cc2c(=O)c(-c3cc(OC)c4c(c3OC)OCO4)coc2cc1OCc1ccccc1` [Gatastatin, O^7-demethylbenzyl AG1] registered a Kd on α/β-tubulin [1] of 42.5 ± 36.7 µM. Also, the “Effect on MT polymerization in vitro induced by glutamate, paclitaxel or recombinant Tau protein” value in assay [2] is “failed to impair MT polymerization in vitro”. Further, the “Effect on MT growth velocity (TIRF analysis of single MTs)” value at α/β-tubulin [3] is “did not affect MT growth velocity”. The compound also gave an Anaphase duration with HeLa cells of 32.4 min.

For the origin of these results see PMC4640066 (Nature Communications, 2015).
